Reference: patent publication US20250382589A1, “SYNTHETIC OPERONS FOR THE PRODUCTION OF 2-MERCAPTOETHANE SULFONATE (COENZYME M) AND METHODS OF USING THE SAME” (priority 2024, published 2025)
Where “and” joins values, the source holds several entries; their conditions need not be identical. Equal entries are not always repeated.

Columns and labels:
[1] = system: E. coli K-12 wild-type and ΔtauD; format: cell-based, Escherichia coli; details: for growth when plated with 2 mM: 2 mM on plates
Method: Uptake of exogenous CoM by E. coli. To determine whether E. coli could catabolize CoM, wild-type (NB506) and ΔtauD (NB510) E. coli K-12 strains were tested for the ability to use CoM, cysteine, and taurine as sole sulfur source on M9 minimal medium lacking sulfur (—S) agar plates after washing to reduce nutrient carryover. E. coli strains were streaked on LB agar (1.5%) plates and used to inoculate 3 mL defined medium (Table 7) then incubated at 35° C. (16 hours, 215 rpm). Cells from 100 μL of each culture was harvested by centrifugation at 5,000×g for 3 minutes. Cells were washed three times and resuspended in 1 mL phosphate buffered saline (137 mM NaCl, 2.7 mM KCl, 10 mM Na2HPO4, 1.8 mM KH2PO4). […] Washed cultures were streaked on each agar plate and incubated at 35° C. for 63 hours before photographing.
We assessed which catabolic pathways could be involved in a hypothetical digestion of CoM by E. coli. […] If this was the case, then the antioxidant effect of CoM may be stronger in the ΔtauD strain when compared to the wild-type strain.

E. coli K-12 ΔtauD [2] = assay: Oxidative stress assay after preincubation with CoM (cumene hydroperoxide)
wild-type E. coli K12 = assay: as above; format: cell-based, Escherichia coli
Excerpt: After having established that E. coli can use CoM as a sulfur source when grown on sulfur-free media, we tested if exogenously supplied CoM could mitigate oxidative stress. […] Protection from oxidative stress remained consistent as the concentration of CuHO2 increased (FIG. 19b). Exponential and logarithmic regression analyses were applied to the lag times of −CoM and +CoM cultures under CuHO2 stress (FIG. 33). These regression curves and their associated equations calculate that the lag time for +CoM E. coli subjected to 65 μM CuHO2 is equivalent to the lag time of −CoM E. coli subjected to ˜50 μM CuHO2.

E. coli K-12 ΔtauD [3] = assay: Chronic oxidative stress assay (cumene hydroperoxide, 96-well growth); format: cell-based, Escherichia coli; details: taurine supplied
Method: Chronic oxidative stress assay. Cultures were prepared according to the procedure outlined in the Acute Stress Assay method above. Cultures were normalized to 0.1 OD600 and 4.5 mL defined medium was inoculated (1:10) and gently mixed. Cultures (148 μL) were dispensed into each well of a sterile 96-well plate. 2 μL of either H2O or […] CuHO2 was added to designated wells.
Observed increases in the doubling times of com^syn expressing cells are expected as these cultures are being tasked with recombinantly producing enzymes which the vector-only control carrying cells are not (FIG. 8d).
As CoM is a thiol with proposed antioxidant qualities, we tested the ability of operon 3 to protect E. coli from oxidative stress. ΔtauD K-12 E. coli were made kanamycin sensitive through the use of the pCP20 plasmid and given a T7 Polymerase using a λDE3 Lysogenization Kit (Novagen). […] Expression of operon 3 was induced for 2 hours using 100 μM IPTG and cultures were incubated with 100 μM taurine for 70 minutes before being used as inoculum in a 96 well plate with cumene hydroperoxide. Optical density (OD) measurements at 600 nm were taken every 6 minutes for 17.5 hours using a Tecan Microplate Reader. A Kirby-Bauer assay was developed which examined the zone of clearing around sterile absorption disks dosed with 5 μL 2.45M hydrogen peroxide.

E. coli K-12 ΔtauD [4] = assay: Acute oxidative stress assay (H2O2 disks, zone of clearing); format: cell-based, Escherichia coli; details: 0.1 mM taurine
Method: Acute oxidative stress assay. E. coli K-12 ΔtauD (NB510) was transformed using pET24a (vector-only control, VOC) or pCH003 (com^syn) to generate strains NB515 and NB525, respectively, and grown on LB agar (1.5%) plates containing 50 μg/mL kanamycin. Cultures were grown in defined medium with kanamycin at 37° C. (10 hours, 215 rpm) then 6 mL defined medium was inoculated (1:100). This culture was incubated until OD600=0.4-0.5 then induced using 0.1 mM IPTG. After another hour of incubation, the cultures were then split into two aliquots of 2.6 mL each, given either 0.1 mM taurine or H2O, and incubated another hour. LB plates containing 0.1 mM IPTG and 0.1 mM taurine were prepared and warmed for 15 minutes at 37° C. Cultures were normalized to 0.1 OD600 and 1 mL of culture was spread on each plate. […] Zones of clearing were measured using the ImageJ program.(38) […]
As CoM is a thiol with proposed antioxidant qualities, we tested the ability of operon 3 to protect E. coli from oxidative stress. ΔtauD K-12 E. coli were made kanamycin sensitive through the use of the pCP20 plasmid and given a T7 Polymerase using a λDE3 Lysogenization Kit (Novagen). […] Optical density (OD) measurements at 600 nm were taken every 6 minutes for 17.5 hours using a Tecan Microplate Reader. […]

[5] = system: CoM synthesis from pyruvate and taurine; assay: CoM biosynthesis assay in E. coli lysate; format: biochemical, Escherichia coli
Method: CoM biosynthesis assay. To improve expression of comF, pCH003 was transformed into BL21 E. coli along with pDB1282, graciously provided by Squire J. Booker (Penn State University).(36) This strain was grown in 25 mL defined medium overnight at 37° C. (250 rpm); this was used to inoculate 975 mL defined medium and continued growth at 37° C. (250 rpm). At OD600=0.3 of the culture was supplemented with 2% L-arabinose, 2 mL 1 M cysteine HCl (2 mM), […] iron (II) sulfate (1 mM), and […] ferric ammonium sulfate (1 mM) then returned to incubation. After 1 hour the culture was induced using 0.1 mM IPTG, incubated for 3 hours, pelleted at 8,000×g (10 minutes, 4° C.), and stored at −80° C. until analysis. A portion of the cell pellet was lysed as described above and the presence of ComF and Tpa was confirmed by immunoblotting using a 8-16% polyacrylamide gel with the initial electrophoresis changed to 50 V (25 minutes) followed by 100 V (105 minutes) and transferred using constant 0.11 A (50 minutes). […] Samples were aspirated into a luer slip tip syringe and filtered through a 0.2 μm, 13 mm diameter polyethersulfone (PES) membrane into fresh amber autosampler vials then stored at 4° C. in the dark until analyzed by high-performance liquid chromatography (HPLC) using an UltiMate 3000 (Thermo Scientific, Waltham, MA). […]

## O=S(=O)(O)CCS [CoM, 2-mercaptoethanesulfonate]
[1]
  growth when plated with 2 mM: no growth defects
E. coli K-12 ΔtauD [2]; +CoM, 65 μM CuHO2
  lag time: 4.7 h
E. coli K-12 ΔtauD [2]; comparison of lag times
  CuHO2 mitigated: ~20 µM
E. coli K-12 ΔtauD [2]; preincubated with CoM, 75 μM cumene
  lag time: 3.5 h
wild-type E. coli K12; +CoM at 65 μM CuHO2, regression
  CuHO2 concentration giving the same lag time in −CoM culture: ~50 µM and 49.73 µM
wild-type E. coli K12; +CoM, 65 μM CuHO2
  lag time: 6.0 h
  lag time predicted by exponential regression: 6.313 h
wild-type E. coli K12; from regression of lag times
  CuHO2 mitigated: ~15 µM
wild-type E. coli K12; preincubated with 100 μM CoM (+CoM), 75 μM cumene negative control, time to OD600=0.1
  lag time: 3.0 h

## N[C@@H](CS)C(=O)O [Cys, cysteine]
[1]
  growth when plated with 2 mM: no growth defects

## NCCS(=O)(=O)O [taurine]
E. coli K-12 ΔtauD [3]
  lag time of vector-only control cells: lag time increased
E. coli K-12 ΔtauD [3]; listed as SC
  lag time of vector-only control cells: increases
[1]
  growth when plated with 2 mM: Inhibitory growth
[1]; M9 (—S) agar plates, 100 μM
  growth with the substance as sulfur source: grew poorly
E. coli K-12 ΔtauD [4]
  zone of clearing of Empty Vector strain: increase in the average zone of clearing size

B1: MA3299: coenzyme M synthase (ComF) of Methanosarcina acetivorans, SEQ ID NO: 1 (protein)
chain: MNGALDNTEKPRTIQEIQVKIDAGEAVVLTAEEIGAKVRAGGEIRLEDIDVVTTATRGIMSGTYAVFSFKVSEPDSFVKASKVLLNGVPAIVGPCPNERLGVLDLIVLGTAHSETDSRYGGGHLFRDMVEGKSITVDVTTSVGDFFSVETRLSEMPFARLYATRHAFKNYRAFVNPGKESIKTIFHALPFEGEFRELTFCGCGELNPIQNDPKLETIGIGTRVLINGAEGFVTGQGTRSAPDNPNLTGFADLHDMTPEYMGGFVTSAGPEIVNTWAVPIPVLSREMLENILQLDSQIPLKLVDLAGRLPLCEITYGDVWDNTDLSVKYEPEKCIDCKICCVAEACPMGAVSKGENGAVHNPELCFNCGLCISRCKGEAFSAKLGTVSCAVGGCFRDIKVTLRQSDRARAVKAAEELKAQVLSGKFRLKEPVEKISWRE
modifications: Methanosarcina acetivorans
[5]; lysate removed from the anaerobic chamber for centrifugation
  reduction of enzymatic activity: ~60%

B2: Q9APM5: taurine-pyruvate aminotransferase from Bilophila wadsworthia, SEQ ID NO: 3 (protein, listed as Bilophila wadsworthia)
chain: MTYDKAELVALDKKYVWHHLTQHKNFEPAIYVKGEGMRITDIDGKTYLDAVSGGVWTVNVGYGRKEIVDAVAKQMMEMCYFANGIGNVPTIKFSEKLISKMPGMSRVYLSNSGSEANEKAFKIVRQIGQLKHGGKKTGILYRARDYHGTTIGTLSACGQFERKVQYGPFAPGFYEFPDCDVYRSKFGDCADLGVKMAKQLEEVILTVGPDELGAVIVEPMTAGGGILVPPAGYYETIREICDKYELLLIIDEVVCGLGRTGKWFGYQHFNVQPDIVTMAKGVASGYAPISCTVTTEKVFQDFVNDPADTDAYFRDISTFGGCTSGPAAALANIEIIERENLLENCTKMGDRLLEGLKGLMAKHPIIGDVRGKGLFAGIEIVKDRATKEPIAEAVANAMVGAAKQAGVLIGKTSRSFREFNNTLTLCPALIATEADIDEIVAGIDKAFTTVEQKFGL
[5]; enzyme alone
  catalysis: Catalysis was not observed
